Measurements taken from patent US20220233556A1, “COMPOSITIONS AND METHODS FOR TREATING OPHTHALMIC CONDITIONS” (Medicon Pharmaceuticals, Inc., priority 2017, published 2022).

Legend:
Staphylococcus aureus = test: Disk diffusion method, antibiotic disks impregnated with PS; format: cell-based; details: PS 1-9% vs 0% PS
Description: It was assessed whether the combination of PS with antibiotics for their topical application to the eye affects the antimicrobial activity of the antibiotics. To this end, the disk diffusion method was used.
Briefly, Staphylococcus aureus grown in culture was seeded evenly on Muller-Hinton II Agar plates (BD Diagnostic Systems) at the standard concentration of 2×10^8 colony-forming units per mL. Antibiotic antimicrobial susceptibility disks (Thermo Scientific Oxoid™) were impregnated with one of six concentrations of PS (0%, 1%, 2%, 3%, 6%, 9%); 10 μL of each was evenly dispensed on each disk. An additional control was disks with no PS and no vehicle. The growth of bacteria around each disk was monitored and the area of “no growth” around each disk was measured 24 h later.

JNK and Erk1/2 = test: MAPK activation by phosphorylation (immunoblots) in human conjunctival cells; format: cell-based; details: PS 3.5 h
Description: FIGS. 6A and 6B illustrate that PS suppresses the activation of NF-κB and MAPKs. In FIG. 6A, NF-κB activation was determined by EMSA in cultured human conjunctival cells stimulated with TNFα (top) and in the ILG of rabbits with Con A-induced DED and treated for one week with either vehicle or PS (bottom). In FIG. 6B, immunoblots detecting the activation of MAPKs by phosphorylation in cultured human conjunctival cells treated with PS at the indicated concentrations for 3.5 h. Loading control: β-actin.
The conjunctiva cells used express only the JNK and Erk1/2 pathways.

[1] = Biodistribution of PS in human cadaveric eyes (ex vivo), PS HP-β-CD solution; format: in vitro ADME; details: human eye ex vivo
Description: Human cadaveric eyes were obtained through the Lions Eye Bank for Long Island, Valley Stream, N.Y. They were preserved on ice and used within 2 h from removal from the donors.
In another similar study, the anterior surface of the human eye was brought into direct contact with a PS HP-β-CD solution (PS concentration at 0.5%, 2.0% and 3.3%) and incubated for 10 min at 37° C. The eye was then rinsed with 10% dimethylsulfoxide (DMSO) to remove residual PS from the surface of the eye and incubated in PBS for 60 min. […] At the specified times, ocular tissues were dissected and PS levels determined by HPLC.

TGF-β = TGF-β levels in culture medium of human conjunctival cells (ELISA); format: cell-based
Description: FIGS. 7A and 7B illustrate that PS suppresses cytokine levels in cultured conjunctival cells and the ILG of rabbits with DED. […] Cytokine levels were determined by ELISA and represent the average of a three samples. In FIG. 7B, IL-1β and IL-8 levels were determined by ELISA in the lacrimal glands of rabbits with Con A-induced DED that were treated with vehicle or PS for one week as previously. Gland tissue was homogenized and ELISA was performed on whole-tissue lysates. n=8 glands/group. Values=mean±SEM.
Cells were treated with PS 1×IC50 and 2 h later TNF-α was added to the medium to a final concentration of 10 ng/ml. Culture media were harvested 24 h later and the levels of TGF-β, IL-6 and IL-8 were determined by ELISA. Of note, the levels of IL-1 were below the limit of detection.

Con A-induced dry eye = Con A-induced dry eye disease (DED) in rabbits: TBUT, tear osmolarity, STT, tear lactoferrin; format: in vivo, New Zealand White (NZW) rabbits
Description: Con A was injected under ultrasound guidance into all the lacrimal glands and the success of the injection was verified by a post-injection ultrasound image (see FIG. 1 and FIG. 2). […] This variation explains why the blind injections recommended in the original method are often unsuccessful. This was confirmed by mixing the Con A solution with methylene blue and tracking its course after injection. In about ⅓ of the cases, Con A ended up outside the gland.
Four parameters of efficacy were evaluated instead of the usual one or two. They include (a) the tear break up time (TBUT), determined using 0.2% fluorescein over the eye and recording the time taken to develop black dots, lines or obvious disruption of the fluorescein film; (b) tear osmolarity, measured using TearLab Osmolarity Test and following the manufacturer's instructions (TearLab Corp., San Diego, Calif.); (3) Schirmer tear test (STT), determined using Schirmer strips (EagleVision, Denville, N.J.) inserted between the cornea and the palpebral conjunctiva at the mid-point of the lower lid and measuring the length of moistened strip at 5 min; and (4) tear lactoferrin levels measured by ELISA kit (MyBiosource, San Diego, Calif.) following the instructions of the manufacturer. All four have been used in clinical practice and correlate with the clinical activity of the disease. The STT is the least reliable and, as result, it is clinically used less than half as frequently as TBUT.
The injections of Con A to the lacrimal glands were repeated weekly as needed. When longer than a 1-week periods of study are needed, repeat injections prolong dry eye for at least 3 weeks, making the originally acute model chronic.
PS Suppresses Con A—Induced Dry Eye in Rabbits. The effect of PS on dry eye was determined in New Zealand White (NZW) rabbits, 2-3 kg (Charles River Labs, Waltham, Mass.). These rabbits were housed singly in rooms with strict temperature (70±5° F.) and humidity (45±5%) control and acclimated for at least 2 weeks prior to induction of dry eye by injection of Con A as above. NZW rabbits with Con A-induced dry eye (three sets of injections) were treated with PS formulated as nanoparticles and administered topically as eye drops 3×/day for 21 days, starting on the day of Con A injection. […] Similar results were obtained on days 5 and 14 (data not shown). […]
The efficacy of lower concentrations of PS. The efficacy of lower concentrations of PS, 0.1% and 0.2% in DED, was also evaluated. The same animal model (rabbits with Concanavalin A-induced DED) was used. The same methodology described herein was followed, except that PS was administered as two eye drops per eye (˜25 μL each) four times a day. PS was formulated in: 10% (2-hydroxypropyl)-β-cyclodextrin, 4% Tween 80, 2.5% Vitamin E TPGS, 1.4% polyvinyl alcohol (13,000-26,000 molecular weight), 0.001% polyquad, as described herein. The Table below summarizes the corresponding findings: […]

[2] = 1 week of treatment, comparison with ophthalmic NSAIDs (FIG. 5)
[3] = PS 0.1%, two eye drops four times a day, Baseline, mean ± SEM (n = 12)
[4] = PS 0.1%, two eye drops four times a day, Day 5, mean ± SEM (n = 12)
[5] = PS 0.2%, two eye drops four times a day, Baseline, mean ± SEM (n = 12)
[6] = PS 0.2%, two eye drops four times a day, Day 5, mean ± SEM (n = 12)
[7] = PS nanoparticles, eye drops 3x/day for 21 days

SMILES: CCOP(=O)(OCC)OCCCCOC(=O)CC1=C(C)/C(=C/c2ccc([S+](C)[O-])cc2)c2ccc(F)cc21 (centres unmarked) [PS, phosphosulindac]
- effect of PS on the inhibition zone of each antibiotic (Staphylococcus aureus): did not appreciably change
- activation by phosphorylation of JNK and Erk1/2 (JNK and Erk1/2): profoundly suppressed
- PS in Aqueous ([1]; 0.5% PS HP-β-CD solution): 2.4 µM
- PS in Lens ([1]; 0.5% PS HP-β-CD solution): 0.6 µM
- PS in Retina ([1]; 0.5% PS HP-β-CD solution): 2.9 µM
- PS in Vitreous ([1]; 0.5% PS HP-β-CD solution): 0.3 µM
- PS in Lens ([1]; 2.0% PS HP-β-CD solution): 1.4 µM
- PS in Lens ([1]; 3.3% PS HP-β-CD solution): 1.9 µM
- PS in Vitreous ([1]; 3.3% PS HP-β-CD solution): 4.3 µM
- reduction of TNF-α-stimulated TGF-β levels (TGF-β; PS 1×IC50, TNF-α 10 ng/ml, 24 h): 19%
- reduction of unstimulated TGF-β levels (TGF-β; PS 1×IC50, not statistically significant): 4.7%
- STT (Con A-induced dry eye; [2]): no significant effect
- TBUT (Con A-induced dry eye; [2]): normalized
- osmolarity (Con A-induced dry eye; [2]): normalized
- STT (Con A-induced dry eye; [3]): 16.4 ± 1.5 mm
- TBUT (Con A-induced dry eye; [3]): 57.9 ± 1.5 s
- STT (Con A-induced dry eye; [4]): 12.0 ± 0.8 mm
- TBUT (Con A-induced dry eye; [4]): 45.4 ± 5.2 s
- STT (Con A-induced dry eye; [5]): 15.9 ± 1.0 mm
- TBUT (Con A-induced dry eye; [5]): 57.9 ± 2.1 s
- STT (Con A-induced dry eye; [6]): 11.8 ± 0.9 mm
- TBUT (Con A-induced dry eye; [6]): 45.7 ± 4.5 s
- TBUT (Con A-induced dry eye; [7]): restored to normal
- tear lactoferrin levels (Con A-induced dry eye; [7]): restored to normal
- tear osmolarity (Con A-induced dry eye; [7]): restored to normal
- STT value (Con A-induced dry eye; PS nanoparticles, eye drops 3x/day for 21 days, difference from vehicle significant only for trend): improved
